Results: article PMC10331583, “Control of fibrosis with enhanced safety via asymmetric inhibition of prolyl‐tRNA synthetase 1” (EMBO Molecular Medicine, 2023)
Several values for one entry are separate records, joined by “and”; a condition that tells them apart may be missing. Equal values may be shown once. Read-outs that look alike come from different tables or passages of the source.

How the values were obtained:
WI‐26 VA4 cells [1] = test: Collagen ELISA (secreted pro‐collagen I)
WI‐26 VA4 cells [2] = test: Immunoblot of cellular protein levels with different proline content; assay type: cell-based, human; conditions: Fig 2A
Experimental: The levels of proteins were determined by immunoblot assay. […] The lowest concentration at which protein levels started to decrease was normalized by IC50 values for collagen level and used as the y‐axis value. […] The slope and R^2 value were calculated using GraphPad Prism 7.0. […] The activation of the TGF‐β pathway was determined by monitoring the phosphorylation of SMAD2. Immunoblot images are representative of three biologically independent experiments. • The band intensities of the immunoblot images in (C) were quantified using ImageJ (n = 3; One‐way ANOVA; *P < 0.05, **P < 0.01, ***P < 0.001; mean ± SEM). Source data are available online for this figure.

WI‐26 VA4 cells [3] = test: CellTiter‐Glo assay (cytotoxicity)
[4] = CellTiter‐Glo assay (cytotoxicity); conditions: human, WI-26 VA4 cells, CC50 (CellTiter-Glo), 72 h (Fig 5B)
[5] = test system: TNT Quick Coupled Transcription/Translation System (luciferase synthesis); assay type: biochemical
[6] = log(inhibitor) vs. response, variable slope (four parameters), concentration in nM

## O=C(CC1NCCCC1O)Cn1cnc2cc(Br)c(Cl)cc2c1=O (centres unmarked) [HF, Halofuginone, reference compound]
WI‐26 VA4 cells [1]; log(inhibitor) vs. response, variable slope (four parameters)
  Collagen HillSlope (best-fit value): -2.183
WI‐26 VA4 cells [1]; [6]
  Collagen LogIC50 (best-fit value): 1.183
WI‐26 VA4 cells [1]; read-out: IC50 for collagen level, TGF‐β 2 ng/ml, 72 h (Fig 1B)
  IC50: 0.015 µM
WI‐26 VA4 cells [2]
  effective dose for decreasing general proteins (SMAD2, AIMP2, AMPKα, cyclin D1) compared with COL1A1: about three times
WI‐26 VA4 cells [3]; Homo sapiens, WI26VA4, read-out: CellTiter-Glo % of control, 1 nM, Experiment #1, replicates
  activity at 0.001 µM: 106%
WI‐26 VA4 cells [3]; Homo sapiens, WI26VA4, read-out: CellTiter-Glo % of control, 10 nM, Experiment #1, replicates
  activity at 0.01 µM: 99.6%
WI‐26 VA4 cells [3]; Homo sapiens, WI26VA4, read-out: CellTiter-Glo % of control, 10 nM, Experiment #2, replicates
  activity at 0.01 µM: 85.1%
WI‐26 VA4 cells [3]; Homo sapiens, WI26VA4, read-out: CellTiter-Glo % of control, 30 nM, Experiment #2, replicates
  activity at 0.03 µM: 74.1%
WI‐26 VA4 cells [3]; Homo sapiens, WI26VA4, read-out: CellTiter-Glo % of control, 100 nM, Experiment #1, replicates
  activity at 0.1 µM: 35.7%
WI‐26 VA4 cells [3]; Homo sapiens, WI26VA4, read-out: CellTiter-Glo % of control, 100 nM, Experiment #2, replicates
  activity at 0.1 µM: 30%
WI‐26 VA4 cells [3]; Homo sapiens, WI26VA4, read-out: CellTiter-Glo % of control, 300 nM, Experiment #2, replicates
  activity at 0.3 µM: 17.6%
WI‐26 VA4 cells [3]; Homo sapiens, WI26VA4, read-out: CellTiter-Glo % of control, 1000 nM, Experiment #1, replicates
  activity at 1 µM: 17.1%
WI‐26 VA4 cells [3]; Homo sapiens, WI26VA4, read-out: CellTiter-Glo % of control, 1000 nM, Experiment #2, replicates
  activity at 1 µM: 29.9%
WI‐26 VA4 cells [3]; Homo sapiens, WI26VA4, read-out: CellTiter-Glo % of control, 3000 nM, Experiment #2, replicates
  activity at 3 µM: 11%
WI‐26 VA4 cells [3]; Homo sapiens, WI26VA4, read-out: CellTiter-Glo % of control, 10000 nM, Experiment #1, replicates
  activity at 10 µM: 1.85%
WI‐26 VA4 cells [3]; Homo sapiens, WI26VA4, read-out: CellTiter-Glo % of control, 10000 nM, Experiment #2, replicates
  activity at 10 µM: 4.64%
WI‐26 VA4 cells [3]; Homo sapiens, WI26VA4, read-out: CellTiter-Glo % of control, 30000 nM, Experiment #2, replicates
  activity at 30 µM: 1.49%
WI‐26 VA4 cells [3]; Homo sapiens, WI26VA4, read-out: CellTiter-Glo % of control, average, 0.3 nM, average
  activity at 0.0003 µM: 103%
WI‐26 VA4 cells [3]; Homo sapiens, WI26VA4, read-out: CellTiter-Glo % of control, average, 1 nM, average
  activity at 0.001 µM: 102%
WI‐26 VA4 cells [3]; Homo sapiens, WI26VA4, read-out: CellTiter-Glo % of control, average, 10 nM, average
  activity at 0.01 µM: 92.4%
WI‐26 VA4 cells [3]; Homo sapiens, WI26VA4, read-out: CellTiter-Glo % of control, average, 30 nM, average
  activity at 0.03 µM: 77.3%
WI‐26 VA4 cells [3]; Homo sapiens, WI26VA4, read-out: CellTiter-Glo % of control, average, 100 nM, average
  activity at 0.1 µM: 30.6%
WI‐26 VA4 cells [3]; Homo sapiens, WI26VA4, read-out: CellTiter-Glo % of control, average, 300 nM, average
  activity at 0.3 µM: 18.1%
WI‐26 VA4 cells [3]; Homo sapiens, WI26VA4, read-out: CellTiter-Glo % of control, average, 1000 nM, average
  activity at 1 µM: 23.7%
WI‐26 VA4 cells [3]; Homo sapiens, WI26VA4, read-out: CellTiter-Glo % of control, average, 3000 nM, average
  activity at 3 µM: 10.2%
WI‐26 VA4 cells [3]; Homo sapiens, WI26VA4, read-out: CellTiter-Glo % of control, average, 10000 nM, average
  activity at 10 µM: 3.39%
WI‐26 VA4 cells [3]; Homo sapiens, WI26VA4, read-out: CellTiter-Glo % of control, average, 30000 nM, average
  activity at 30 µM: 1.53%
WI‐26 VA4 cells [3]; Homo sapiens, WI26VA4, read-out: CellTiter-Glo % of control, average, 100000 nM, average
  activity at 100 µM: 0.00424%
WI‐26 VA4 cells [3]; [6]
  CellTiter-Glo LogIC50 (best-fit value): 1.708
[4]
  CC50 at 72 h: 0.051 µM
[5]
  TNT-luciferase LogIC50 (best-fit value): 2.211
[5]; 6 nM
  TNT-luciferase % of control, average: 106.95 % of control
[5]; 6 nM, 0.006 µM
  TNT-luciferase % of control: 109.98 % of control and 110.97 % of control and 123.24 % of control and 104.46 % of control and 101.11 % of control and 91.92 % of control
[5]; 10 nM
  TNT-luciferase % of control, average: 114.54 % of control
[5]; 10 nM, 0.01 µM
  TNT-luciferase % of control: 118.82 % of control and 112.93 % of control and 98.69 % of control and 124.51 % of control and 116.16 % of control
[5]; 20 nM
  TNT-luciferase % of control, average: 104.66 % of control
[5]; 20 nM, 0.02 µM
  TNT-luciferase % of control: 102.13 % of control and 100.65 % of control and 102.62 % of control and 110.31 % of control and 109.47 % of control and 102.79 % of control
[5]; 36 nM
  TNT-luciferase % of control, average: 110.74 % of control
[5]; 36 nM, 0.036 µM
  TNT-luciferase % of control: 113.42 % of control and 108.02 % of control and 129.62 % of control and 107.80 % of control and 102.79 % of control
[5]; 60 nM
  TNT-luciferase % of control, average: 109.84 % of control
[5]; 60 nM, 0.06 µM
  TNT-luciferase % of control: 112.44 % of control and 104.58 % of control and 103.60 % of control and 118.66 % of control and 113.65 % of control and 106.13 % of control
[5]; 100 nM
  TNT-luciferase % of control, average: 95.21 % of control
[5]; 100 nM, 0.1 µM
  TNT-luciferase % of control: 67.76 % of control and 70.21 % of control and 67.27 % of control and 122.01 % of control and 126.18 % of control and 117.83 % of control
[5]; 200 nM
  TNT-luciferase % of control, average: 33.45 % of control
[5]; 360 nM
  TNT-luciferase % of control, average: 4.01 % of control
[5]; 600 nM
  TNT-luciferase % of control, average: 0.26 % of control
[5]; 1000 nM
  TNT-luciferase % of control, average: 0.09 % of control
[5]; 2000 nM
  TNT-luciferase % of control, average: 0.02 % of control
[5]; 2000 nM, 2 µM
  TNT-luciferase % of control: 0.04 % of control
[5]; read-out: TNT-luciferase IC50 (best-fit value)
  IC50: 0.163 µM
